{"source": "patent US20040014637A1", "about": "“Mechanism for the inactivation of insulin receptor and uses in the treatment of type II diabetes” (McGill University, priority 1998, published 2004)", "key": {"[1]": {"target": "T1, insulin receptor (Rattus norvegicus, UniProt P15127)", "T1 construct": "from tissue; host or cells: rat liver; endosome (EN) and plasma membrane (PM) fractions", "T1 sequence (P15127 27-759 limits assumed)": "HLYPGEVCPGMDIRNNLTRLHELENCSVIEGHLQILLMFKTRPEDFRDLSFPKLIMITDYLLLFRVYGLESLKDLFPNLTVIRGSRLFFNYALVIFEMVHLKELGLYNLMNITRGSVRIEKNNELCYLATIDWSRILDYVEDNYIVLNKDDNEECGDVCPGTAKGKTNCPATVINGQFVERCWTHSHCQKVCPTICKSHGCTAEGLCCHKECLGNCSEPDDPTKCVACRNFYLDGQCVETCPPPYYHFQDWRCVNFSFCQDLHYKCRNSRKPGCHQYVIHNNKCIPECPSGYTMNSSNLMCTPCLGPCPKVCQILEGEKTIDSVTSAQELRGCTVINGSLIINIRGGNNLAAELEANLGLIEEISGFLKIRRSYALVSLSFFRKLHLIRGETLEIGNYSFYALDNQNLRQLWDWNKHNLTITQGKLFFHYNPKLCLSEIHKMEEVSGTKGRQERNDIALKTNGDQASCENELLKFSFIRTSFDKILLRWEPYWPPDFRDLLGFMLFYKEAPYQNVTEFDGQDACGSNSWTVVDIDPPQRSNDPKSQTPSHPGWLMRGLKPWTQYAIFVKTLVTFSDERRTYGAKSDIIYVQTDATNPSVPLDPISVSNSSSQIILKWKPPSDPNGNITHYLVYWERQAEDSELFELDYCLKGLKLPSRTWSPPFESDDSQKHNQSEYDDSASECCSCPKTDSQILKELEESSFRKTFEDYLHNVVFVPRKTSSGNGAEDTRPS", "T1 sequence (P15127 764-1383 limits assumed)": "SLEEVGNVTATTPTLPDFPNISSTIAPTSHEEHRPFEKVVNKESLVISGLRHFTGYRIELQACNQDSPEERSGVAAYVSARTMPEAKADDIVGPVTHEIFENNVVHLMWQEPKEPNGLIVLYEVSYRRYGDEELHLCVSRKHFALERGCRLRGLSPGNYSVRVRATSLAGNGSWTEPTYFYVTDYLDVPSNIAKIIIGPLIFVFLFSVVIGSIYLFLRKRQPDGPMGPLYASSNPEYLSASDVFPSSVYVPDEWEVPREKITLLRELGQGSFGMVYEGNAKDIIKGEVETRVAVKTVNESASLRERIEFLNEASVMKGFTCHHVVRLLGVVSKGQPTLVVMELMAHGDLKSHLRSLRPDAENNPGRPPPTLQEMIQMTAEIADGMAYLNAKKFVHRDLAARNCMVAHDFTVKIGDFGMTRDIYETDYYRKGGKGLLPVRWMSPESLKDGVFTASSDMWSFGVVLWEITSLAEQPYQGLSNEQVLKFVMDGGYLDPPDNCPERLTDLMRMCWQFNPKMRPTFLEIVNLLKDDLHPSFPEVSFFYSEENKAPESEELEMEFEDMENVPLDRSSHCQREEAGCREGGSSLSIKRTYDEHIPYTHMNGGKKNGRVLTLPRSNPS", "assay": "125I-insulin binding after preincubating endosomes (ENs containing IR) with nucleotides", "settings": "for 125I-insulin specific binding, WGA-purified endosomes / 125I-insulin specific binding, solubilized endosomes: preincubation 37° C. 15 min; for 125I-Insulin specific binding (%), Solubilized endosomes / 125I-Insulin specific binding (%), WGA-purified endosomes: Table 2, normalized to endosomes without nucleotide", "protocol": "Rats were anaesthetized with ether and were injected via jugular vein with a dose (per 100 g body weight) of insulin (1.5 μg), or bpV(phen) (0.6 μmol), dissolved in 0.2 ml. phosphate buffered saline (pH 7.4) −0.1% BSA. […] Livers were rapidly excised, placed in ice-cold homogenizing buffer (50 mM HEPES (pH 7.4), 0.25 M sucrose, 1 mM PMSF, 1 MM MgCl2, 1 mM benzamidine) and minced before homogenization. […] These subcellular fractions have been characterized in detail both morphologically and biochemically.\nAfter 10 min at room temperature, the reactions was terminated by spotting 50 μl aliquots on Whatman 3 MM filters.\nIn the present study we wished to assess whether other processes might be involved in reducing the association of intraendosomal insulin with its receptor. We examined the effect of incubating intact ENs containing IR with increasing concentrations of ATP on subsequently measured insulin and hGH binding in both solubilized and WGA-purified receptors."}, "[2]": {"target": "T2, insulin receptor kinase (IRK) β-subunit (Rattus norvegicus, UniProt P15127)", "T2 construct": "from tissue; host or cells: rat liver; endosome (EN) and plasma membrane (PM) fractions", "T2 sequence (P15127 27-759 limits assumed)": "as the sequence (P15127 27-759 limits assumed) above", "T2 sequence (P15127 764-1383 limits assumed)": "as the sequence (P15127 764-1383 limits assumed) above", "assay": "2-D phosphoamino acid analysis of the IRK β-subunit", "assay_type": "biochemical", "settings": "ENs incubated with 1 or 5 mM γ-32P ATP, 15 min 37° C.", "protocol": "ENs containing IR were removed from the 0.6/1.0 M sucrose interface of the gradient used in endosomal purification, and diluted with 0.25 M sucrose to a final protein concentration of 50 μg/ml. A 30 ml aliquot was centrifuged at 200,000×gav for 40 mins prior to resuspending in 500 μl of cell-free system buffer (44 mM HEPES (pH 7.4), 0.55 M sucrose, 333 mM KCl, 11 mM NaCl, 11 mM MgCl2). Incubations were initiated by adding 500 μl of 10 mM Tricine buffer containing either 2 or 10 mM ATP at a specific activity of 0.5 mCi ^32P/mmol. After incubating for 15 min at 37° C. the reaction was stopped by adding an equal volume of ice-cold 20 mM HEPES, 0.25 M sucrose, 2 mM PMSF, 2 mM benzamidine, 4 mM Na orthovanadate and 80 mM Na fluoride. […]\nPrevious work has shown that serine/threonine phosphorylation of the β-subunit of the IRK results in an inhibition of IRK activity. We thus determined if incubating ENs containing IR with 5 mM ATP promotes the phosphorylation of IRK on serine and threonine residues. […]"}}}
{"smiles": "Nc1ncnc2c1ncn2[C@@H]1O[C@H](COP(=O)(O)OP(=O)(O)OP(=O)(O)O)[C@@H](O)[C@H]1O", "note": "[ATP, adenosine 5′triphosphate]", "values": [{"measurement": "125I-insulin specific binding, WGA-purified endosomes", "setting": "[1]; ATP 0.1 mM, percent of control", "value": "107.7 ± 1.5", "unit": "%"}, {"measurement": "125I-insulin specific binding, solubilized endosomes", "setting": "[1]; ATP 0.1 mM, percent of control ENs without ATP", "value": "103.6 ± 2.5", "unit": "%"}, {"measurement": "125I-insulin specific binding, WGA-purified endosomes", "setting": "[1]; ATP 1 mM, percent of control", "value": "123.9 ± 6.2", "unit": "%"}, {"measurement": "125I-insulin specific binding, solubilized endosomes", "setting": "[1]; ATP 1 mM, percent of control", "value": "90.9 ± 4.2", "unit": "%"}, {"measurement": "125I-insulin specific binding, WGA-purified endosomes", "setting": "[1]; ATP 3 mM, percent of control", "value": "99.3 ± 0.9", "unit": "%"}, {"measurement": "125I-insulin specific binding, solubilized endosomes", "setting": "[1]; ATP 3 mM, percent of control", "value": "96.7 ± 2.6", "unit": "%"}, {"measurement": "125I-insulin specific binding, WGA-purified endosomes", "setting": "[1]; ATP 5 mM, percent of control", "value": "52.1 ± 1.2", "unit": "%"}, {"measurement": "125I-insulin specific binding, solubilized endosomes", "setting": "[1]; ATP 5 mM, percent of control", "value": "84.2 ± 2.7", "unit": "%"}, {"measurement": "125I-insulin specific binding, WGA-purified endosomes", "setting": "[1]; ATP 10 mM, percent of control", "value": "8.4 ± 0.2", "unit": "%"}, {"measurement": "125I-Insulin specific binding (%), Solubilized endosomes", "setting": "[1]; addition 0.1 mM, 37° C. 15 min", "value": "103.4 ± 2.5", "unit": "%"}, {"measurement": "125I-Insulin specific binding (%), WGA-purified endosomes", "setting": "[1]; addition 0.1 mM, 37° C. 15 min", "value": "108.1 ± 2.0", "unit": "%"}, {"measurement": "125I-Insulin specific binding (%), Solubilized endosomes", "setting": "[1]; addition 1 mM, 37° C. 15 min", "value": "95.5 ± 14.2", "unit": "%"}, {"measurement": "125I-Insulin specific binding (%), WGA-purified endosomes", "setting": "[1]; addition 1 mM, 37° C. 15 min", "value": "92.2 ± 2.2", "unit": "%"}, {"measurement": "125I-Insulin specific binding (%), Solubilized endosomes", "setting": "[1]; addition 10 mM at 4° C. (on ice)", "value": "112.0 ± 3.3", "unit": "%"}, {"measurement": "125I-Insulin specific binding (%), Solubilized endosomes", "setting": "[1]; addition 10 mM, 37° C. 15 min", "value": "43.6 ± 6.3", "unit": "%"}, {"measurement": "125I-Insulin specific binding (%), WGA-purified endosomes", "setting": "[1]; addition 10 mM, 37° C. 15 min", "value": "25.2 ± 5.2", "unit": "%"}, {"measurement": "32P phosphoserine in IRK β-subunit (FIG. 5)", "setting": "[2]", "value": "no detectable"}]}
